Laboratory results: patent publication US20250361277A1, “PROTEASE-RESPONSIVE SURFACE-POTENTIAL-TUNABLE PEPTIDE CONSTRUCTS FOR SELECTIVE IMAGING AND ACCURATE INHIBITOR SCREENING” (The Regents of the University of California, priority 2024, published 2025)
Structures can show the parent of a compound that is named as a salt. Where two headings read alike, the source gives them in different places. No end group written: not given here.

Experiments:
TMPRSS2 [1] = target: T1, TMPRSS2 (Homo sapiens, UniProt O15393); test: TMPRSS2 inhibitor screening with EGTP in TMPRSS2-Vero cells (CLSM); design: effect of inhibitor on yellow fluorescence of EGTP: dose or concentration left out as unconfirmed; settings: for effect of inhibitor on fluorescence intensity of EGTP: 100 nM inhibitor 1 h, 10 μM EGTP 1 h
Procedure: (§5) To further screen TMPRSS2 inhibitors with EGTP, Vero cells and TMPRSS2-Vero cells as robust cell models were chosen for cell imaging (FIG. 4a). Vero cells and TMPRSS2-Vero cells were incubated with different concentrations (1 mM, 5 mM, 10 mM, and 20 mM) of PyTPE and EGTP (Figures S23, S24, S25, and S26).
(§6) Incubation living cells with probes. For confocal laser scanning microscopy imaging, A549 cells, HeLa cells, MCF-7-GFP cells, Vero cells, and TMPRSS2-Vero cells were seeded into cell culture dishes at a density of 2.0×10^5 in growth medium (DMEM supplemented with 10% FBS, 200 mL). After overnight incubation, the cells were washed with phosphate-buffered saline (PBS, pH 7.4) three times. A solution of the indicated probe in PBS was then added, and the cells were incubated in a 5% CO2 atmosphere at 37° C. for further use. […] The supernatant was then discarded, and the cells were washed gently twice with PBS and fixed with 2% paraformaldehyde (PFA) at room temperature for 20 min prior to optical imaging.
(§7) Confocal laser scanning microscopy. […] A 405 nm laser was chosen for the excitation of AIEgens and the emission was collected at 550-620 nm. A 488 nm laser was chosen for the excitation of GFP (or MTG), the emission was collected at 500-530 nm. […] All fluorescence images were analyzed with an IMAGE™ software (Zeiss).

TMPRSS2 [2] = target: T1, TMPRSS2; test: Impact of protease inhibitors on EGTP fluorescence with TMPRSS2 in buffer; format: biochemical; design: expressed in transfected cells; host or cells: TMPRSS2-Vero cells
[3] = system: A549 cells, HeLa cells, and MCF-7-GFP cells
Procedure: (§1) The TMPRSS2 selective imaging capability of EGTP was tested via the three different cell lines.
Cytotoxicity assay. […] The fluorescence of Resazurin solution at 690 nm using an excitation wavelength of 560 nm was recorded by a SYNERGY H1™ microplate reader (BioTek) with standard operation procedures.

[4] = system: SARS-CoV-2 infected TMPRSS2-Vero cells; test: SARS-CoV-2 infected TMPRSS2-Vero cells with PSGMR and Mpro inhibitor GC376 (CLSM); format: cell-based, SARS-CoV-2 (USA-WA1/2020)
Recombinant Mpro = Recombinant Mpro (Severe acute respiratory syndrome coronavirus 2, UniProt P0DTD1)
[5] = system: SARS-CoV-2 infected TMPRSS2-Vero cells; format: cell-based, SARS-CoV-2 (USA-WA1/2020); settings: for yellow and red fluorescence of infected cells: 10 μM probe; for red and yellow fluorescence and cell morphology of infected cells: PSGMR versus PMR
[6] = target: Recombinant SARS-CoV-2 Mpro (Severe acute respiratory syndrome coronavirus 2, UniProt P0DTD1)
[7] = system: noninfected TMPRSS2-Vero cells
[8] = system: plasmid transfected HEK 293T cells; format: cell-based
[9] = system: Mpro plasmid-transfected HEK 293T cells
[10] = DLS hydrodynamic size and zeta potential of PSGMR without and with Mpro; format: physicochemical
Procedure: To validate the enzyme digestion efficiency, PSGMR was incubated with different concentrations of Mpro. […] No increase in fluorescence was detected in the presence of the GC376, thus showing that the fluorescence increase was due to Mpro-mediated peptide cleavage. […] PSGMR was also treated under identical conditions with several commercial proteins to investigate probe specificity: papain-like protease, thrombin, bovine serum albumin, and hemoglobin. […] Dynamic light scattering (DLS) tests and transmission electron microscopy (TEM) of PSGMR were performed to de-termine the change of particle size and surface potential distribution after incubation with Mpro. The average hydro-dynamic size of PSGMR increased from 142 nm to 396 nm (FIG. 1h), and the mean zeta potential value decreased from 23.97 mV to 12.46 mV (FIG. 1i). […] This aggregation was confirmed by TEM (FIG. 1j). The 20 mM Tri-HCl buffer can lead to a uniform nanoparticle (˜78 nm) (Figure S18), and β-sheet structure of PSGMR was observed after incubation with Mpro or at high concentrations (Figures S19-S22).
The 1H and 13C NMR spectra were measured on a BRUKER ARX 300™ NMR spectrometer using chloroform-d (CDCl3-d) or dimethyl sulfoxide-d6 (DMSO-d6) as solvent and tetramethylsilane (TMS) as internal reference. Splitting patterns are reported as s (single), d (doublet), t (triplet), and m (multiplet). Peptides were synthesized using an AAPPTec ECLIPSE™ system through standard solid phase Fmoc syntheses on rink-amide resin. Electrospray ionization mass spectrometry (ESI-MS) data was acquired by using a MICROMASS QUATTRO ULTIMA™ mass spectrometer. High resolution mass spectra (HRMS) were recorded on a BRUKER MICROTOF II™ mass spectrometer system. High performance liquid chromatography (HPLC) was performed by using a SHIMADZU™ LC-40 HPLC system under the wavelength of 195 nm, 254 nm, and 405 nm. The sample was dissolved in water or acetonitrile, applied on a ZORBAX 300 BS™ C18 column (5 um, 9.4×250 mm) from Agilent, and eluted at 1.5 mL/min with a 40 min gradient from 10% to 95% solvent B where solvent A is water (0.05% TFA solution) and solvent B is acetonitrile (0.05% TFA solution). All products were purified by HPLC to reach a purity of 90%. UV-Vis absorption and fluorescence spectra were performed on a SYNERGY H1™ microplate reader (BioTek). Confocal laser scanning microscopy images were obtained on a Zeiss LSM880 confocal laser scanning microscope (Zeiss). Dynamic light scattering (DLS) measurements were performed on a NANO-ZS90 ZETASIZER™ (Malvern) to determine hydrodynamic sizes and zeta potential values of the nanosystems studied. Transmission electron microscopy (TEM) images were acquired using an FEI TECNAI F20™ instrument at an operation voltage of 200 kV.

TMPRSS2 [11] = target: T1, TMPRSS2; test: Cleavage of probes by recombinant TMPRSS2 (HPLC and ESI-MS); format: biochemical; settings: incubation for 1 h at 37° C. in 20 mM Tris-HCl buffer (pH 8.0)
MCF-7-GFP cells = test: CLSM imaging of MCF-7-GFP cells (TMPRSS2 high expression); format: cell-based; settings: 10 μM probe, 1 h
Procedure: (§2) TMPRSS2 selective imaging in cancer cells with EGTP.
(§3) Incubation living cells with probes.
(§4) Confocal laser scanning microscopy.

TMPRSS2 [12] = target: T1, TMPRSS2; test: Enzymatic fluorescence assay of probes with TMPRSS2; format: biochemical; design: expressed in transfected cells; host or cells: TMPRSS2-Vero cells; settings: Tris-HCl buffer with 1% DMSO, excitation 405 nm
Procedure: Recombinant TMPRSS2 was added into the working solution and then diluted to a total of 100 μl with the same Tris-HCl buffer. The reaction mixture was incubated at 37° C. for 1 h for UV-Vis absorption and fluorescence measurement. The solution was excited at 405 nm, and the emission was collected from 430 nm to 800 nm.

HeLa cells = format: cell-based
Procedure: as §1

A549 cells = test: CLSM imaging of A549 cells (TMPRSS2 low expression); format: cell-based; settings: 10 μM probe, 1 h
Procedure: as §2, §3, §4

Vero cells = test: CLSM imaging of Vero cells; settings: 1, 5, 10, 20 mM as printed, 1 h
TMPRSS2-Vero cells = format: cell-based
Procedure: as §5, §6, §7

[13] = 10 μM PSGMR, increasing GC376 (2-12 μM)

T1 sequence (O15393 whole entry): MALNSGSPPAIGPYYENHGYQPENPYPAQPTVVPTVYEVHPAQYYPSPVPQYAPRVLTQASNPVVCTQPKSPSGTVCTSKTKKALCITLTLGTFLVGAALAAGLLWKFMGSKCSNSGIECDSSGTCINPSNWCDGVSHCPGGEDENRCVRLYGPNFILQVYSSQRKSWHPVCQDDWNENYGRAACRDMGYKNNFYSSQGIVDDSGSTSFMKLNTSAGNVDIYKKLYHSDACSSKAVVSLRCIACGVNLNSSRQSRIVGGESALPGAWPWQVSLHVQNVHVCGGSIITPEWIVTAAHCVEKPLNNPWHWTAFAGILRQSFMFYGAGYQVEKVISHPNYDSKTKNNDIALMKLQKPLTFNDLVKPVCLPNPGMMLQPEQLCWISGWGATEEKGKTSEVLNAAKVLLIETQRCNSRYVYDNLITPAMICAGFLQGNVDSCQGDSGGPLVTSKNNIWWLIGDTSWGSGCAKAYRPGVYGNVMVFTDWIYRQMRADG

Compound: CN(C)C(=O)COC(=O)Cc1ccc(OC(=O)c2ccc(NC(=N)N)cc2)cc1 [Camostat, camostat mesylate]
- effect of inhibitor on yellow fluorescence of EGTP (TMPRSS2 [1]; Camostat before adding EGTP): gradually decreased
- effect of inhibitor on fluorescence of EGTP with TMPRSS2 incubation (TMPRSS2 [2]): significantly reduced fluorescence of EGTP

Compound: C#CC[C@H](NC(=O)CNC(=O)CNC(=O)[C@H](CCCNC(=N)N)NC(=O)[C@H](C)NC(=O)[C@H](CCC(N)=O)NC(=O)CNC(=O)CNC(=O)CNC(=O)[C@H](CCC(=O)O)NC(=O)[C@H](CCC(=O)O)NC(=O)[C@H](CCC(=O)O)NC(=O)[C@H](CCC(=O)O)NC(=O)[C@H](CCC(=O)O)NC(=O)[C@H](CCC(=O)O)NC(=O)[C@H](CCC(=O)O)NC(=O)[C@H](CCC(=O)O)NC(=O)[C@@H](N)CCC(=O)O)C(N)=O [EGT, EEEEEEEEEGGGQAR (SEQ ID NO:4)]
- toxicity to cells ([3]; 1 μM to 20 μM, 48 h): negligible toxicity

Compound: CC(C)C[C@H](NC(=O)OCc1ccccc1)C(=O)N[C@@H](C[C@@H]1CCNC1=O)C(O)S(=O)(=O)[O-].[Na+] (stereo partly drawn) [GC376]
- effect of inhibitor on fluorescence intensity of EGTP (TMPRSS2 [1]): no significant effect on the fluorescence intensity of EGTP
- red and yellow fluorescence with inhibitor ([4]; 10 μM PSGMR and 2 μM, 6 μM, and 12 μM GC376): markedly decreased
- average red fluorescence intensity, decrease [4, 13]: 32.6 to 11.6 times
- average yellow fluorescence intensity, decrease [4, 13]: 5.8 to 3.6 times

Compound: Cc1ccc(N)cc1C(=O)N[C@H](C)c1cccc2ccccc12 [GRL0617]
- effect of inhibitor on fluorescence intensity of EGTP (TMPRSS2 [1]): no significant effect on the fluorescence intensity of EGTP

Compound: (Pra)GSAVLQ/SGFRKMAGRRRRRR [PMR]
- aggregation and fluorescence on incubation with Mpro (time-dependent spectra) (Recombinant Mpro): can easily aggregate with strong fluorescence
- fluorescence intensity after incubation with Mpro (Recombinant Mpro): weaker than that of PSGMR
- killing / inhibition of infected cells [5]: can also inhibit infected cells
- yellow and red fluorescence of infected cells [5]: weaker than that of PSGMR
- red and yellow fluorescence and cell morphology of infected cells [5]: less than the infected cells with PSGMR
- cleavage by Mpro [6]: can be cleaved by M^pro
- cleavage by Mpro ([6]; pH 8): can be cleaved by Mpro between Q and S

Compound: (Pra)KLVFFGGGSAVLQ/SGFRKMAGGGRRRRRR [PSGMR]
- high concentration that caused significant cytotoxicity (HEK 293T cells; HEK 293T cells, 48 h): 40 µM
- red and yellow fluorescence and cell morphology of noninfected cells [7]: weak red and yellow fluorescence with normal cell morphology
- aggregation and fluorescence on incubation with Mpro (time-dependent spectra) (Recombinant Mpro): can aggregate easily with strong fluorescence
- fluorescence intensity with different concentrations of Mpro (Recombinant Mpro): gradually enhanced with in-creasing Mpro concentration
- probe specificity: fluorescence intensity with different proteins (Recombinant Mpro): clearly enhanced selectively with Mpro
- time to fluorescence plateau at 590 nm (Recombinant Mpro): ≤ 20 min
- fluorescence of FLIPGFP, PSGMR [8]: weak green and yellow fluo-rescence
- fluorescence of FLIPGFP, PSGMR and PI [8]: Strong green, yellow and red fluorescence
- green, red and yellow fluorescence intensities with incubation time [8]: markedly enhanced with the longer incubation time
- killing / inhibition of infected cells [5]: can selectively kill SARS-CoV-2-infected cells
- yellow (probe) and red (PI) fluorescence in infected cells [5]: strong yellow and red fluorescence
- yellow and red fluorescence of infected cells [5]: significantly enhanced
- average red fluorescence intensity of infected cells, higher than with PMR ([5]; PI channel): 600%
- red and yellow fluorescence and cell morphology of infected cells [5]: bright red and yellow fluorescence with obvious cell mor-phologic dilatation
- average yellow fluorescence intensity of infected cells, higher than with PMR ([5]; probe channel): 569%
- cleavage by Mpro ([6]; pH 8): can be cleaved by Mpro between Q and S
- cell viability after incubation with probe ([9]; Mpro plasmid-transfected cells): decreased
- cytotoxicity (metabolic activity) ([9]; Mpro plasmid, higher concentration of 10 μM, 48 h): obviously cytotoxic
- average hydrodynamic size ([10]; after incubation with Mpro): 396 nm
- mean zeta potential value ([10]; after incubation with Mpro): 12.46 mV
- average hydrodynamic size ([10]; before incubation with Mpro): 142 nm
- mean zeta potential value ([10]; before incubation with Mpro): 23.97 mV

Compound: (Pra)KLVFFGSAVLQ/SGFRKMARRRRRR [PSMR]
- aggregation and fluorescence on incubation with Mpro (time-dependent spectra) (Recombinant Mpro): cannot aggregate with weak fluorescence
- fluorescence intensity after incubation with Mpro (Recombinant Mpro): decreased upon incubation with Mpro
- cleavage by Mpro ([6]; pH 8): not

Compound: AVLQFFVLKC [AVLQFFVLKC (SEQ ID NO:12)]
- cleavage by Mpro [6]: not cleaved by Mpro

Compound: CGAVLQDDD [CGAVLQDDD (SEQ ID NO: 11)]
- cleavage by Mpro [6]: not cleaved by Mpro

Compound: TGP: control probe without polyglutamic acid: peptide QARGG (SEQ ID NO:2) linked by Propargylglycine (Pra) to the dye PyTPE (also: linked by Pra to dye PyTPE, end not given here)
- cleavage by TMPRSS2 (TMPRSS2 [11]): can be cleaved by TMPRSS2
- yellow fluorescence in MCF-7-GFP cells (MCF-7-GFP cells): strong yellow fluorescence
- fluorescence intensity after incubation with TMPRSS2 (comparison of probes) (TMPRSS2 [12]): stronger than that of EGTP and EGEP
- yellow fluorescence in HeLa cells (HeLa cells; 10 μM probe, 1 h): strong yellow fluorescence
- yellow fluorescence in A549 cells (A549 cells): strong yellow fluorescence

Compound: TetraPhenylEthene Pyridinium [PyTPE]
- yellow fluorescence in Vero cells (Vero cells): enhanced with increasing concentrations
- yellow fluorescence in TMPRSS2-Vero cells (TMPRSS2-Vero cells): enhanced with increasing concentrations
- cytotoxicity (metabolic activity) (HEK 293T cells): obviously cytotoxic
- high concentration that caused significant cytotoxicity (HEK 293T cells): 20 µM
- overlap of yellow fluorescence with Mito tracker green (MTG) (HeLa cells): overlapped well with the green fluorescence of MTG
- concentration that can cause significant cytotoxicity [3]: > 5 µM
- cytotoxicity (metabolic activity) [3]: obviously cytotoxic
